This assay relates to Superior cervical ganglia (SCG) neurons. Briefly: Bioassay of neuronal survival in primary superior cervical ganglia neurons. The following applies: primary SCG neurons from E-21 rat pups, microfluidic devices. Type of assay: cell-based, Sprague Dawley rat. The source says: The SCG assay was adapted to compartmented cultures and updated to grow primary neurons in microfluidic devices SCG neurons were harvested from E-21 Sprague Dawley rat pups. If labeled NGF has similar bioavailability to the unlabeled NGF, i.e., TrkA binding sites remain intact. FIG. 2 (right) compares left panels of study article with right panels showing treatment with NGF only.

With nerve growth factor [NGF], the neuronal survival entry is reported as “appear to show neuronal survival”.

Source of the values: US20240293562A1, “METHODS FOR USING NEUROTROPHIN RECEPTOR BINDING CONJUGATE COMPOSITIONS IN THE TREATMENT OF A NEUROLOGICAL CONDITION” (Manzanita Pharmaceuticals, Inc., priority 2020, published 2024).
